Test results as given in publication PMC9834240, “Senescent cells perturb intestinal stem cell differentiation through Ptk7 induced noncanonical Wnt and YAP signaling” (Nature Communications, 2023).
“And” between values parts separate entries of the source, which are not always exact repeats. Identical values can stand only once.

Columns and labels:
Type in all cases: cell-based
[1] = system: mouse intestinal organoids; experiment: cystic organoid percentage, organoids in conditioned media (SCM/QCM) with or without inhibitors or antibodies; details: for percentage of cystic organoids: Fig. 3c, dialyzed, individual mice, n = 3; for cystic organoid percentage: DMSO = 0; for effect on cystic organoid phenotype: SCM-exposed organoids
Procedure: Twenty-four hours before collecting conditioned media (CM), MEFs were washed with serum-free DMEM twice, and serum-free DMEM was added. After 24 h in serum-free DMEM, this CM was collected, filtered using Steriflip filters (Millipore, #SE1M179M6) to remove cell debris, and concentrated using centrifugal filter units (Amicon ultra-15 centricon; Millipore, # UFC900324). […] CM was filtered and dialyzed for 24–48 h to remove the inhibitors before concentration.
(§1) The jejunum part of the small intestine was removed, flushed with PBS, opened longitudinally, then cut into 0.5 cm pieces. The collected tissues were washed with ice cold PBS multiple times by vortexing and incubated in PBS containing 2.5 mM EDTA for 5 min at 37 °C. After gentle shaking and aspiration, tissues were incubated in PBS containing 5 mM EDTA for 7 min at 37 °C. Tissues were then washed with PBS to remove EDTA and vigorously shaken to release crypts. The released crypts were passed through 70 μm strainers, washed with PBS, and pelleted by centrifugation at 200 × g.
(§2) 3-4 biological replicates of organoids from different mice were used per condition. Organoids were cultured in the indicated media, inhibitors, antibodies and/or recombinant proteins for 5 d and fixed in 4% formaldehyde in PBS. Organoids were imaged with a 4× Plan Fluor objective (NA: 0.13, Nikon) on a Nikon Ti-E inverted microscope equipped with a Neo scMOS camera (Andor, Oxford Instruments), a linear encoded automated stage (Applied Scientific Instrumentation), all run by NIS Elements software (Nikon). Organoids were imaged in brightfield and images covering the whole well were stitched and focused into one image projection with an extended depth of focus module (EDF; Nikon). One hundred to 200 organoids per replicate per condition were counted and used for quantification. The number of budding organoids in each condition was normalized by the number of budding organoids in untreated or DMSO treated controls to calculate cystic organoid percentage:1 Cysticorganoidpercentage=100×1−Numberofbuddingorganoidsfromexperiment/Numberofbuddingorganoidsfromcontrol

[2] = system: mouse intestinal organoids; experiment: cystic organoid percentage, co-culture with quiescent or senescent intestinal fibroblasts; set-up: key: % = 100×(1 − budding organoids treated/budding organoids control); details: relative to DMSO = 0
Procedure: as §2
Mouse intestinal fibroblasts were purchased from Cell Biologics (#C57-6231) and cultured in Complete Fibroblast Medium (Cell Biologics, M2267) at 37 °C and 5% CO2. Cellular quiescence and senescence in mouse intestinal fibroblasts were induced by the similar methods described earlier for MEFs with minor modifications. Briefly, cellular quiescence was induced by culturing the fibroblasts in low serum (0.5% FBS), and cellular senescence was induced by 500 nM doxorubicin treatment for 5 days (doxorubicin; Sigma-Aldrich, #44583). Once cellular quiescence or senescence was induced, MEFs were maintained at 37 °C, 5% CO2, and 3% O2 for another 5 days. The quiescent or senescent fibroblasts were dissociated using 0.05% Trypsin-EDTA (Gibco, #25300-054) and counted for seeding. The same number of quiescent and senescent fibroblasts (5.2 × 10^4 cells) were mixed with intestinal organoids making total volume of 20 μl of Matrigel: organoid culture media mix, which was mounted on a 48 well plate.

[3] = system: mouse intestinal organoids; experiment: inhibition of Wnt5a-induced cystic organoids; set-up: key to cystic organoids (sheet SF.5b): % cystic = 100×(1 − budding organoids treated/control); details: relative to Untreated = 0
Procedure: as §1, with “g. Resuspended crypts were mixed with Matrigel (Corning, #356231; Lot#8218007) and pipetted into culture plates. After mixture of crypts and Matrigel solidified, IntestiCult Organoid Growth Medium (Stem Cell Technologies, #06005; Lots #1000021927, #1000034230, #1000037372) was added. Seven days after seeding, organoids were resuspended in dissociation buffer (Gentle Cell Dissociation Reagent; Stem Cell Technologies, #07174), dissociated by pipetting, and seeded for experiments.” for “g.”
as §2

CNC(=O)[C@H](Cc1c[nH]c2ccccc12)NC(=O)[C@@H](CC(=O)NO)CC(C)C [GM6001]
percentage of cystic organoids ([1]; SCM from MEFs exposed to GM6001 (20 uM, 24 h)): 29.2391% and 41.0714% and 39.5302%

O=C(O)c1ccc2c3c1cccc3c(=O)n1c3ccccc3nc21 [STO609]
cystic organoid percentage ([1]; Fig.5l, 5uM, no conditioned medium, replicate 1): -8.274 | cystic organoid percentage ([1]; Fig.5l, 5uM, no conditioned medium, replicate 2): -5.955 | cystic organoid percentage ([1]; Fig.5l, 5uM, no conditioned medium, replicate 3): -8.683 | cystic organoid percentage ([1]; Fig.5l, QCM + 5uM, replicate 1): -3.426 | cystic organoid percentage ([1]; Fig.5l, QCM + 5uM, replicate 2): 1.872 | cystic organoid percentage ([1]; Fig.5l, QCM + 5uM, replicate 3): -3.616 | cystic organoid percentage ([1]; Fig.5l, SCM + 5um, replicate 1): 16.8399 | cystic organoid percentage ([1]; Fig.5l, SCM + 5um, replicate 2): 8.659 | cystic organoid percentage ([1]; Fig.5l, SCM + 5um, replicate 3): 6.694

CN([C@@H](Cc1ccc(OS(=O)(=O)c2cccc3cnccc23)cc1)C(=O)N1CCN(c2ccccc2)CC1)S(=O)(=O)c1cccc2cnccc12 [KN62]
cystic organoid percentage ([1]; Fig.5l, 10uM, no conditioned medium, replicate 1): 0.2849 | cystic organoid percentage ([1]; Fig.5l, 10uM, no conditioned medium, replicate 2): -0.03848 | cystic organoid percentage ([1]; Fig.5l, 10uM, no conditioned medium, replicate 3): 4.343 | cystic organoid percentage ([1]; Fig.5l, QCM + 10uM, replicate 1): -7.21 | cystic organoid percentage ([1]; Fig.5l, QCM + 10uM, replicate 2): -3.018 | cystic organoid percentage ([1]; Fig.5l, QCM + 10uM, replicate 3): -12.8255 | cystic organoid percentage ([1]; Fig.5l, SCM + 10um, replicate 1): -3.501 | cystic organoid percentage ([1]; Fig.5l, SCM + 10um, replicate 2): 1.186 | cystic organoid percentage ([1]; Fig.5l, SCM + 10um, replicate 3): 0.111

O=C(CCl)c1ccccc1Nc1cccc(C(F)(F)F)c1 [TED347]
cystic organoid percentage ([1]; Fig.7e, 2 uM, no conditioned medium, replicate 1): -4.167 | cystic organoid percentage ([1]; Fig.7e, 2 uM, no conditioned medium, replicate 2): 2.041 | cystic organoid percentage ([1]; Fig.7e, 2 uM, no conditioned medium, replicate 3): 3.815 | cystic organoid percentage ([1]; Fig.7e, QCM + 2 uM, replicate 1): 3.646 | cystic organoid percentage ([1]; Fig.7e, QCM + 2 uM, replicate 2): 2.9703 | cystic organoid percentage ([1]; Fig.7e, QCM + 2 uM, replicate 3): -0.09671 | cystic organoid percentage ([1]; Fig.7e, SCM + 2 uM, replicate 1): 13.1944 | cystic organoid percentage ([1]; Fig.7e, SCM + 2 uM, replicate 2): 21.2963 | cystic organoid percentage ([1]; Fig.7e, SCM + 2 uM, replicate 3): 18.1818 | effect on cystic organoid phenotype [1]: reduced the percentage of cystic organoids

CC(C)C[C@H](CC(=O)NO)C(=O)N[C@@H](Cc1ccc2ccccc2c1)C(=O)N[C@@H](C)C(=O)NCCN [TAPI-1]
percentage of cystic organoids ([1]; SCM from MEFs exposed to TAPI-1 (50 uM, 24 h)): 21.6102% and 25.641% and 30.6707%

cyclosporin A
effect on cystic organoid phenotype [1]: had no effect on this phenotype | cystic organoids (sheet SF.5d) ([2]; 1 uM CsA, no fibroblasts, replicate 1): -0.1051 | cystic organoids (sheet SF.5d) ([2]; 1 uM CsA, no fibroblasts, replicate 2): -6.5368 | cystic organoids (sheet SF.5d) ([2]; 1 uM CsA, no fibroblasts, replicate 3): 5.663 | cystic organoids (sheet SF.5d) ([2]; Q + 1um CsA (quiescent fibroblasts), replicate 1): 19.8791 | cystic organoids (sheet SF.5d) ([2]; Q + 1um CsA (quiescent fibroblasts), replicate 2): 16.6126 | cystic organoids (sheet SF.5d) ([2]; Q + 1um CsA (quiescent fibroblasts), replicate 3): 9.858 | cystic organoids (sheet SF.5d) ([2]; SEN + 1uM CsA (senescent fibroblasts), replicate 1): 45.7387 | cystic organoids (sheet SF.5d) ([2]; SEN + 1uM CsA (senescent fibroblasts), replicate 2): 66.7022 | cystic organoids (sheet SF.5d) ([2]; SEN + 1uM CsA (senescent fibroblasts), replicate 3): 42.5108

CN1CCN(CCCN2c3ccccc3Sc3ccc(C(F)(F)F)cc32)CC1 [Trifluoperazine A]
cystic organoids (sheet SF.5b) ([3]; 100 nM Trifluoperazine A, no Wnt5a, replicate 1): 1.842 | cystic organoids (sheet SF.5b) ([3]; 100 nM Trifluoperazine A, no Wnt5a, replicate 2): -0.6895 | cystic organoids (sheet SF.5b) ([3]; 100 nM Trifluoperazine A, no Wnt5a, replicate 3): -1.481 | cystic organoids (sheet SF.5b) ([3]; 100 nM Trifluoperazine A, no Wnt5a, replicate 4): 3.596 | cystic organoids (sheet SF.5b) ([3]; 1 uM Trifluoperazine A, no Wnt5a, replicate 1): -0.2581 | cystic organoids (sheet SF.5b) ([3]; 1 uM Trifluoperazine A, no Wnt5a, replicate 2): -2.568 | cystic organoids (sheet SF.5b) ([3]; 1 uM Trifluoperazine A, no Wnt5a, replicate 3): -0.6142 | cystic organoids (sheet SF.5b) ([3]; 1 uM Trifluoperazine A, no Wnt5a, replicate 4): -2.171 | cystic organoids (sheet SF.5b) ([3]; Wnt5a + 100 nM Trifluoperazine A, replicate 1): 12.7683 | cystic organoids (sheet SF.5b) ([3]; Wnt5a + 100 nM Trifluoperazine A, replicate 2): 12.5989 | cystic organoids (sheet SF.5b) ([3]; Wnt5a + 100 nM Trifluoperazine A, replicate 3): 11.621 | cystic organoids (sheet SF.5b) ([3]; Wnt5a + 100 nM Trifluoperazine A, replicate 4): 16.7645 | cystic organoids (sheet SF.5b) ([3]; Wnt5a + 1 uM Trifluoperazine A, replicate 1): 9.106 | cystic organoids (sheet SF.5b) ([3]; Wnt5a + 1 uM Trifluoperazine A, replicate 2): 10.2184 | cystic organoids (sheet SF.5b) ([3]; Wnt5a + 1 uM Trifluoperazine A, replicate 3): 3.882 | cystic organoids (sheet SF.5b) ([3]; Wnt5a + 1 uM Trifluoperazine A, replicate 4): 10.8434

O=C(CSc1nc2c(c(=O)n1-c1ccccc1)SCC2)Nc1ccc(-c2ccccc2)cn1 [IWP-L6]
cystic organoid percentage ([1]; SF.3d, SCM + inhibitor, replicate 1): 46.6221 | cystic organoid percentage ([1]; SF.3d, SCM + inhibitor, replicate 2): 58.2456 | cystic organoid percentage ([1]; SF.3d, SCM + inhibitor, replicate 3): 31.9347

Verteporfin
effect on cystic organoid phenotype [1]: strongly reduced the cystic organoid percentage
